# Reference: paper PMC9343605, “Structural insights into ligand recognition and selectivity of somatostatin receptors” (Cell Research, 2022)
# What was measured:
# SSTR4 [1] = assay: Whole cell binding assay, SSTR4, competition with 125I-Tyr11-SST14, CHO-K1; parameters: species or system human; details: IC50(mutant)/IC50(WT)
# Method: (§2) For SSTR2 and SSTR4, CHO-K1 cells were cultured in F12 medium with 10% FBS and seeded at a density of 30,000 cells/well in Isoplate-96 plates (PerkinElmer). Twenty-four hours after transfection with the WT or mutant SSTR2/SSTR4, CHO-K1 cells were washed twice and incubated with blocking buffer (F12 supplemented with 25 mM HEPES and 0.1% (w/v) BSA, pH 7.4) for 2 h at 37 °C. […] Following incubation, cells were washed three times with ice-cold PBS and lysed by 50 μL lysis buffer (PBS supplemented with 20 mM Tris-HCl, 1% Triton X-100, pH 7.4). The radioactivity was subsequently counted (counts/min, CPM) in a scintillation counter (MicroBeta[2] Plate Counter, PerkinElmer) using a scintillation cocktail (OptiPhaseSuperMix, PerkinElmer). Data were analyzed by nonlinear regression using GraphPad PRISM 8.
# (§3) aMutants represent that all mutations were introduced separately into the WT receptors
# and expressed in CHO K1 cells.
# (§4) bThe IC50 ratio was shown as IC50(mutant)/IC50(WT), indicating the shift between the WT
# (§5) and mutant curves, reflecting the effect of the mutations on ligand binding.
# (§6) cData are shown as mean ± S.E.M. form at least three independent experiments
# (§7) performed in technical triplicate. One-way ANOVA was performed followed by
# (§8) Dunnett’s post-test and compared with WT.
# (§9) d The span is defined as the window between the maximal agonists response (Emax) and
# (§10) e Sample size; the number of independent experiments performed in technical triplicate.
# SSTR4 [2] = details: SSTR4 selective agonist; cited from earlier work
# Text: (§1) Along with increased knowledge of the pharmacological effects of these receptors, medical application of SST and its analogs has expanded. A considerable amount of effort has been made to develop new therapeutics for oncology of SSTRs. […] It was found recently that radiolabeled SSTR antagonists produced superi ...
# SSTR4 [3] = target: SSTR4 (Homo sapiens, UniProt P31391); assay: cAMP accumulation assay (agonist-induced inhibition of forskolin-stimulated cAMP), SSTR4, HEK293F; format: cell-based; parameters: expressed in transfected cells; host or cells: HEK293F; details: WT SSTR4, mean ± SEM;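 further: transiently transfected cells incubated 40 min at room temperature with 4 µM forskolin and graded ligand, cAMP read by LANCE Ultra TR-FRET kit, values normalized to WT receptor per ligand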
# Method: (§11) HEK293F cells were transiently transfected with WT or mutant SSTR2/SSTR4 using transfection reagent (PEI MAX 2000, Polysciences) and incubated at 37 °C in 5% CO2. Forty-eight hours after transfection, cells were centrifuged and resuspended in stimulation buffer (Hanks’ balanced salt solution (HBSS) supplemented with 5 mM HEPES, 0.5 mM IBMX and 0.1% (w/v) bovine serum albumin (BSA), pH 7.4) to a density of 200,000 cells/mL and added to 384-well white plates (PerkinElmer, 1000 cells/well). cAMP accumulation was measured by a LANCE Ultra cAMP kit (PerkinElmer) according to the manufacturer’s instructions. In brief, transfected cells were incubated for 40 min in stimulation buffer with 2.5 μL forskolin (SSTR2: 2 μM; SSTR4: 4 μM) and gradient concentration of ligand at RT. The reactions were stopped by addition of lysis buffer containing 5 μL Eu-cAMP tracer and 5 μL ULight-anti-cAMP. Plates were then incubated for 60 min at RT and time-resolved FRET signals were measured at 620 nm and 665 nm by an EnVision multilabel plate reader (PerkinElmer). Data were analyzed in GraphPad PRISM 8 and all values were normalized to the WT for each ligand. All outcomes were repeated at least three times.
# (§12) aMutants represent that mutations were introduced separately into the WT receptors and
# (§13) transiently expressed in HEK 293F cells.
# (§14) bThe EC50 ratio was shown as EC50(mutant)/EC50(WT), indicating the shift between the WT
# (§15) and mutant curves, reflecting the effect of the mutations on receptor signaling.
# (§16) cData are shown as mean ± S.E.M. from at least three independent experiments
# as §7
# (§17) Dunnett’s post-test and compared with WT. The P value was defined as: *P<0.05;
# as §9, §10
# (§18) f Receptor expression level of HEK 293F cells was determined independently by flow
# (§19) cytometry with anti-FLAG antibody and shown as per cent compared to the WT.
# SSTR4 [4] = target: SSTR4 (Homo sapiens, UniProt P31391, D126A); assay: as above; format: cell-based; parameters: expressed in transfected cells; host or cells: HEK293F; details: SSTR4 mutant D126^3.32A; mean ± SEM
# Method: as §11, §12, §13, §14, §15, §16, §7, §17, §9, §10, §18, §19
# SSTR4 [5] = target: SSTR4 (Homo sapiens, UniProt P31391, F275A); assay: as above; format: cell-based; parameters: expressed in transfected cells; host or cells: HEK293F; details: SSTR4 mutant F275^6.51A; mean ± SEM
# Method: as §11, §12, §13, §14, §15, §16, §7, §17, §9, §10, §18, §19
# SSTR4 [6] = target: SSTR4 (Homo sapiens, UniProt P31391, M130A); assay: as above; format: cell-based; parameters: expressed in transfected cells; host or cells: HEK293F; details: SSTR4 mutant M130^3.36A; mean ± SEM
# Method: as §11, §12, §13, §14, §15, §16, §7, §17, §9, §10, §18, §19
# SSTR4 [7] = target: SSTR4 (Homo sapiens, UniProt P31391, N199A); assay: as above; format: cell-based; parameters: expressed in transfected cells; host or cells: HEK293F; details: SSTR4 mutant N199^ECL2A; mean ± SEM
# Method: as §11, §12, §13, §14, §15, §16, §7, §17, §9, §10, §18, §19
# SSTR4 [8] = target: SSTR4 (Homo sapiens, UniProt P31391, Q279A); assay: as above; format: cell-based; parameters: expressed in transfected cells; host or cells: HEK293F; details: SSTR4 mutant Q279^6.55A; mean ± SEM
# Method: as §11, §12, §13, §14, §15, §16, §7, §17, §9, §10, §18, §19
# SSTR4 [9] = target: SSTR4 (Homo sapiens, UniProt P31391, T215A); assay: as above; format: cell-based; parameters: expressed in transfected cells; host or cells: HEK293F; details: SSTR4 mutant T215^5.42A; mean ± SEM
# Method: as §11, §12, §13, §14, §15, §16, §7, §17, §9, §10, §18, §19
# SSTR4 [10] = target: SSTR4 (Homo sapiens, UniProt P31391, V264F); assay: as above; format: cell-based; parameters: expressed in transfected cells; host or cells: HEK293F
# Method: as §11, §12, §13, §14, §15, §16, §7, §17, §9, §10, §18, §19
# SSTR4 [11] = target: SSTR4 (Homo sapiens, UniProt P31391, Y276A); assay: as above; format: cell-based; parameters: expressed in transfected cells; host or cells: HEK293F; details: SSTR4 mutant Y276^6.52A; mean ± SEM
# Method: as §11, §12, §13, §14, §15, §16, §7, §17, §9, §10, §18, §19
# SSTR4 [12] = target: SSTR4 (Homo sapiens, UniProt P31391, Y301A); assay: as above; format: cell-based; parameters: expressed in transfected cells; host or cells: HEK293F; details: SSTR4 mutant Y301^7.43A; mean ± SEM
# Method: as §11, §12, §13, §14, §15, §16, §7, §17, §9, §10, §18, §19
# [13] = tested on: growth hormone and glucagon releases; details: full agonist; cited from earlier work
# Text: as §1
# SSTR2 [14] = target: SSTR2 (Homo sapiens, UniProt P30874, D122A); assay: Whole cell binding assay, SSTR2, competition with 125I-Tyr11-SST14, CHO-K1; details: SSTR2 mutant D122^3.32A; mean ± SEM;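 further: Cell-bound radioactivity in lysed CHO-K1 cells read by scintillation counting, each mutation introduced singly into the WT receptor, at least three independent experiments run in technical triplicate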
# Method: as §2, §3
# and expressed in CHO K1 cells.
# as §4, §5, §6, §7, §8, §9, §10
# SSTR2 [15] = target: SSTR2 (Homo sapiens, UniProt P30874, F275A); assay: as above; details: SSTR2 mutant F275^6.54A; mean ± SEM
# Method: as §2, §3
# and expressed in CHO K1 cells.
# as §4, §5, §6, §7, §8, §9, §10
# SSTR2 [16] = target: SSTR2 (Homo sapiens, UniProt P30874, Q126A); assay: as above; details: SSTR2 mutant Q126^3.36A; mean ± SEM
# Method: as §2, §3
# and expressed in CHO K1 cells.
# as §4, §5, §6, §7, §8, §9, §10
# SSTR2 [17] = target: SSTR2 (Homo sapiens, UniProt P30874, T212A); assay: as above; details: SSTR2 mutant T212^5.42A; mean ± SEM
# Method: as §2, §3
# and expressed in CHO K1 cells.
# as §4, §5, §6, §7, §8, §9, §10
# SSTR2 [18] = target: SSTR2 (Homo sapiens, UniProt P30874, Y205A); assay: as above; details: SSTR2 mutant Y205^5.35A; mean ± SEM
# Method: as §2, §3
# and expressed in CHO K1 cells.
# as §4, §5, §6, §7, §8, §9, §10
# SSTR2 [19] = assay: as above; details: for IC50 ratio: IC50(mutant)/IC50(WT)
# Method: as §2, §3
# and expressed in CHO K1 cells.
# as §4, §5, §6, §7, §8, §9, §10
# Chain of SSTR4 (Homo sapiens, UniProt P31391, V264F) (P31391 1-328 V264F): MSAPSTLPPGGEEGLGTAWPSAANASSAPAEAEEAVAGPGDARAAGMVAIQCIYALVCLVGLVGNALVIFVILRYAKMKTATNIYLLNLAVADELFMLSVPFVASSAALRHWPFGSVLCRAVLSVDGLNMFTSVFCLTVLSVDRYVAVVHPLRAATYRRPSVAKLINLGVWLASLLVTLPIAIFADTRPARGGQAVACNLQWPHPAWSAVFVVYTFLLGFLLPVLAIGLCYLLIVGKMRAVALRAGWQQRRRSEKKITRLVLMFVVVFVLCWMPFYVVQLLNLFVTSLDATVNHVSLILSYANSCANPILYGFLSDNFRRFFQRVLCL
# Chain of SSTR4 (Homo sapiens, UniProt P31391) (P31391 whole entry): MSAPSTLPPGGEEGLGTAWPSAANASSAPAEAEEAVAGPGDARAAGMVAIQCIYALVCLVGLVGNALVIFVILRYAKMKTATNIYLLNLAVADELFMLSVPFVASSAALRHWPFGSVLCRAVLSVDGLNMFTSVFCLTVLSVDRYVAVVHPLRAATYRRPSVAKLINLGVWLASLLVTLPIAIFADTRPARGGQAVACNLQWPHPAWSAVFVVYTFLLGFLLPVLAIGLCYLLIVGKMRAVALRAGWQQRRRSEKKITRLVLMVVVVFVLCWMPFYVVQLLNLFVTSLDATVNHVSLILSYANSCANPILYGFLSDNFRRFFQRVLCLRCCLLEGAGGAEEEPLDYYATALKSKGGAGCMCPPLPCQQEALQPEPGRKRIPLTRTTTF
# Chain of SSTR2 (Homo sapiens, UniProt P30874, Y205A) (P30874 whole entry Y205A): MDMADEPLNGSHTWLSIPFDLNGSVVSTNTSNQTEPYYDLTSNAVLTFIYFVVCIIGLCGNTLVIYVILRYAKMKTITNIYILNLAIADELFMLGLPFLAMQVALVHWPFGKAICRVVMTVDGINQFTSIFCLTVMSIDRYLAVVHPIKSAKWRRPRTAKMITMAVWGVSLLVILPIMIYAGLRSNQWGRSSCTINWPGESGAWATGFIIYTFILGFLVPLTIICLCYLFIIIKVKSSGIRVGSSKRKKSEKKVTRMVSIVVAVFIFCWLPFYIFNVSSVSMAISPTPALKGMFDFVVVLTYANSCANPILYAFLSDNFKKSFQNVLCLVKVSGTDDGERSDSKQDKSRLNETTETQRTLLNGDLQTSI
# Chain of SSTR4 (Homo sapiens, UniProt P31391, M130A) (P31391 whole entry M130A): as the sequence (P31391 whole entry) above, with M130A counted along it
# Chain of SSTR2 (Homo sapiens, UniProt P30874, F275A) (P30874 whole entry F275A): as the sequence (P30874 whole entry Y205A) above, with A205Y, F275A counted along it
# Chain of SSTR4 (Homo sapiens, UniProt P31391, Y301A) (P31391 whole entry Y301A): as the sequence (P31391 whole entry) above, with Y301A counted along it
# Chain of SSTR2 (Homo sapiens, UniProt P30874, T212A) (P30874 whole entry T212A): as the sequence (P30874 whole entry Y205A) above, with A205Y, T212A counted along it
# Chain of SSTR4 (Homo sapiens, UniProt P31391, T215A) (P31391 whole entry T215A): as the sequence (P31391 whole entry) above, with T215A counted along it
# Chain of SSTR4 (Homo sapiens, UniProt P31391, Q279A) (P31391 whole entry Q279A): as the sequence (P31391 whole entry) above, with Q279A counted along it
# Chain of SSTR4 (Homo sapiens, UniProt P31391, Y276A) (P31391 whole entry Y276A): as the sequence (P31391 whole entry) above, with Y276A counted along it
# Chain of SSTR4 (Homo sapiens, UniProt P31391, N199A) (P31391 whole entry N199A): as the sequence (P31391 whole entry) above, with N199A counted along it
# Chain of SSTR2 (Homo sapiens, UniProt P30874, D122A) (P30874 whole entry D122A): as the sequence (P30874 whole entry Y205A) above, with D122A, A205Y counted along it
# Chain of SSTR4 (Homo sapiens, UniProt P31391, D126A) (P31391 whole entry D126A): as the sequence (P31391 whole entry) above, with D126A counted along it
# Chain of SSTR2 (Homo sapiens, UniProt P30874, Q126A) (P30874 whole entry Q126A): as the sequence (P30874 whole entry Y205A) above, with Q126A, A205Y counted along it
# Chain of SSTR4 (Homo sapiens, UniProt P31391, F275A) (P31391 whole entry F275A): as the sequence (P31391 whole entry) above, with F275A counted along it
compound,measurement,setting,value
Cc1ccc(S(=O)(=O)N[C@@H](CCN)C(=O)N[C@@H](Cc2ccccc2)C(N)=O)c2ccccc12 [J-2156],IC50 ratio,SSTR4 [1]; Construct 4 SSTR4,0.5
same,IC50 ratio,SSTR4 [1]; SSTR4 mutant Q279^6.55A,2
same,IC50 ratio,SSTR4 [1]; SSTR4 mutant T215^5.42A,1
same,IC50 ratio,SSTR4 [1]; WT SSTR4,1
same,pain relief,SSTR4 [2],mediates pain relief
same,pEC50 ± SEM,"SSTR4 [3]; HEK293F, at least three independent experiments",9.73±0.08
same,Span,SSTR4 [3]; window between Emax and vehicle,100±3 % of WT
same,Span,SSTR4 [4],23±28 % of WT
same,Span,SSTR4 [5],22±7 % of WT
same,Span,SSTR4 [6],78±6 % of WT
same,pEC50 ± SEM,SSTR4 [6],9.12±0.19
same,Span,SSTR4 [7],88±5 % of WT
same,pEC50 ± SEM,SSTR4 [7],10.23±0.14
same,Span,SSTR4 [8],98±6 % of WT
same,pEC50 ± SEM,SSTR4 [8],9.57±0.17
same,Span,SSTR4 [9],92±5 % of WT
same,pEC50 ± SEM,SSTR4 [9],9.85±0.14
same,EC50,"SSTR4 [10]; Construct 4 SSTR4 (V264F, C-terminal truncation)",0.03 nM
same,Span,"SSTR4 [10]; Construct 4 SSTR4, mean ± SEM",106±5 % of WT
same,pEC50 ± SEM,"SSTR4 [10]; Construct 4 SSTR4, mean ± SEM",10.46±0.13
same,Span,SSTR4 [11],106±6 % of WT
same,pEC50 ± SEM,SSTR4 [11],6.71±0.08
same,Span,SSTR4 [12],64±7 % of WT
same,pEC50 ± SEM,SSTR4 [12],7.02±019
"C[C@@H](c1c[nH]c2ccccc12)[C@@H](NC(=O)N1CCC(n2c(=O)[nH]c3ccccc32)CC1)C(=O)N[C@@H](CCCCN)C(=O)OC(C)(C)C [L-054,522]",effect on growth hormone and glucagon releases,[13],inhibitory effect on growth hormone and glucagon releases
same,Span,SSTR2 [14],15±7 % of WT
same,Span,SSTR2 [15],33±3 % of WT
same,pIC50 ± SEM,SSTR2 [15],7.57±0.23
same,Span,SSTR2 [16],15±5 % of WT
same,Span,SSTR2 [17],94±5 % of WT
same,pIC50 ± SEM,SSTR2 [17],8.49±0.11
same,Span,SSTR2 [18],70±5 % of WT
same,pIC50 ± SEM,SSTR2 [18],8.89±0.15
same,IC50 ratio,SSTR2 [19]; Construct 2 SSTR2,3
same,IC50 ratio,SSTR2 [19]; SSTR2 mutant F275^6.54A,9
same,IC50 ratio,SSTR2 [19]; SSTR2 mutant Q102^2.63A,152
same,IC50 ratio,SSTR2 [19]; SSTR2 mutant T194^ECL2A,12
same,IC50 ratio,SSTR2 [19]; SSTR2 mutant T212^5.42A,1
same,IC50 ratio,SSTR2 [19]; SSTR2 mutant Y205^5.35A,0.4
same,IC50 ratio,SSTR2 [19]; WT SSTR2,1
same,effect of construct modifications on binding and signaling,SSTR2 [19]; crystallization construct vs WT SSTR2,"little effect on L-054,522 binding and signaling"
